Here are results for two compounds from ChEMBL document CHEMBL1629561, “Inhibition of Bacillus anthracis spore outgrowth by nisin” (Antimicrob Agents Chemother, 2008).

Structures are written as SMILES. Active and inactive are the calls of the source. No cut-off for these calls is given here. Bounds are passed on as bounds.

The subject of assay [1] is Bacillus anthracis. Kind of assay: Antibacterial activity against Bacillus anthracis spores assessed as reduction in membrane potential at 10 uM after 10 hrs by flow cytometry. Format: functional, organism-based.
Assay [2] relates to Bacillus anthracis. Put plainly: Antibacterial activity against Bacillus anthracis spores assessed as loss of exosporium by transmission electron microscopy. Format: functional, organism-based.
Assay [3] relates to Bacillus anthracis. Kind of assay: Antibacterial activity against Bacillus anthracis spores assessed as reduction in membrane potential at 10 uM after 5 hrs by flow cytometry. The assay is classed as functional, organism-based. On the technique in general: A flow cytometer gives signals particle by particle.
Assay [4] concerns Bacillus anthracis. Put plainly: Antibacterial activity against Bacillus anthracis spores assessed as inhibition of spore germination at 10 uM preincubated for 5 mins with germinating medium measured after 18 hrs. The assay is classed as functional, organism-based.
Assay [5] has as its system Bacillus anthracis. Kind of assay: Antibacterial activity against Bacillus anthracis spores assessed as reduction in membrane potential at 1 uM after 10 hrs by flow cytometry. Format: functional, organism-based.
The subject of assay [6] is Bacillus anthracis. Kind of assay: Antibacterial activity against Bacillus anthracis spores assessed as loss of spore cortex by transmission electron microscopy. Format: functional, organism-based.
In assay [7] the test system is Bacillus anthracis. Put plainly: Antibacterial activity against Bacillus anthracis spores assessed as loss of membrane integrity at 0.1 uM by flow cytometry relative to control. Format: functional, organism-based.
In assay [8] the test system is Bacillus anthracis. Kind of assay: Antibacterial activity against Bacillus anthracis spores assessed as loss of membrane integrity at 1 uM by flow cytometry relative to control. The assay is classed as functional, organism-based.
The test system of assay [9] is Bacillus anthracis. Kind of assay: Antibacterial activity against Bacillus anthracis spores assessed as loss of spore coat by transmission electron microscopy. Format: functional, organism-based.
For assay [10], the system named is Bacillus anthracis. Put plainly: Antibacterial activity against Bacillus anthracis assessed as effect on germination initiation-associated loss in spore heat resistance after 5 mins by spectroscopy. The assay is classed as functional.
In assay [11] the test system is Bacillus anthracis. Kind of assay: Antibacterial activity against Bacillus anthracis spores assessed as inhibition of growth of replicating vegetative bacteria at 1 uM. The assay is classed as functional, organism-based.
For assay [12], the system named is Bacillus anthracis. Put plainly: Antibacterial activity against Bacillus anthracis spores assessed as reduction in membrane potential at 100 uM after 10 hrs by flow cytometry. Format: functional, organism-based.
Assay [13] deals with Bacillus anthracis. Kind of assay: Antibacterial activity against Bacillus anthracis spores assessed as reduction in membrane potential at 0.1 uM after 5 hrs by flow cytometry. Format: functional, organism-based.
Assay [14] concerns Bacillus anthracis. Put plainly: Antibacterial activity against Bacillus anthracis spores assessed as decrease in spore germination initiation at 10 uM preincubated with germination medium measured after 18 hrs. The assay is classed as functional, organism-based.
Assay [15] relates to Bacillus anthracis. Kind of assay: Antibacterial activity against Bacillus anthracis spores assessed as reduction in membrane potential at 0.1 uM after 10 hrs by flow cytometry. The assay is classed as functional, organism-based.
For assay [16], the system named is Bacillus anthracis. Kind of assay: Antibacterial activity against Bacillus anthracis spores assessed as inhibition of growth of replicating vegetative bacteria at 10 uM. The assay is classed as functional, organism-based.
Assay [17] has as its system Bacillus anthracis. Put plainly: Antibacterial activity against Bacillus anthracis spores assessed as reduction in membrane potential at 100 uM after 5 hrs by flow cytometry. Format: functional, organism-based.
Assay [18] concerns Bacillus anthracis. Put plainly: Antibacterial activity against Bacillus anthracis spores assessed as inhibition of growth of replicating vegetative bacteria at 0.1 uM after 50 minutes. The assay is classed as functional, organism-based.
In assay [19] the test system is Bacillus anthracis. Put plainly: Antibacterial activity against Bacillus anthracis spores assessed as inhibition of growth of replicating vegetative bacteria at 100 uM. Format: functional, organism-based.
Assay [20] deals with Bacillus anthracis. Put plainly: Antibacterial activity against Bacillus anthracis spores assessed as reduction in membrane potential at 1 uM after 5 hrs by flow cytometry. The assay is classed as functional, organism-based.
Assay [21] deals with Bacillus anthracis. Kind of assay: Antibacterial activity against Bacillus anthracis assessed as effect on hydration of spore structure-associated loss in refractility after 10 min by spectroscopy. The assay is classed as functional.
In assay [22] the test system is Bacillus anthracis. Kind of assay: Antibacterial activity against Bacillus anthracis spores assessed as loss of membrane integrity at 10 uM by flow cytometry relative to control. The assay is classed as functional, organism-based.
Assay [23] concerns Bacillus anthracis. Put plainly: Antibacterial activity against Bacillus anthracis spores assessed as loss of membrane integrity at 100 uM by flow cytometry relative to control. The assay is classed as functional, organism-based.
Assay [24] deals with Bacillus anthracis. Kind of assay: Antibacterial activity against Bacillus anthracis assessed as effect on spore germination initiation after 5 mins by spectroscopy in presence of 0.1 M MOPS nongerminating condition. Format: functional, organism-based.
Assay [25] relates to Bacillus anthracis. Kind of assay: Antibacterial activity against Bacillus anthracis spores assessed as reduction in membrane potential at 1 uM. Format: functional, organism-based.
For assay [26], the system named is Bacillus anthracis. Kind of assay: Antibacterial activity against Bacillus anthracis spores assessed as reduction in membrane potential at 0.01 uM. The assay is classed as functional, organism-based.
The subject of assay [27] is Bacillus anthracis. Put plainly: Antibacterial activity against Bacillus anthracis spores assessed as inhibition of growth of replicating vegetative bacteria at 1 uM after 5 hrs. The assay is classed as functional, organism-based.
Assay [28] relates to Bacillus anthracis. Kind of assay: Antibacterial activity against Bacillus anthracis spores assessed as reduction in membrane potential at 10 uM. Format: functional, organism-based.
Assay [29] concerns Bacillus anthracis. Kind of assay: Antibacterial activity against Bacillus anthracis spores assessed as reduction in membrane potential at 0.1 uM. Format: functional, organism-based.
Assay [30] relates to Bacillus anthracis. Kind of assay: Antibacterial activity against Bacillus anthracis spores assessed as loss of membrane integrity at 0.01 uM by flow cytometry relative to control. Format: functional, organism-based.

Regarding `C=C(NC(=O)[C@@H](NC(=O)[C@H](Cc1cnc[nH]1)NC(=O)[C@@H](NC(=O)[C@H](CO)NC(=O)[C@@H]1CS[C@@H](C)[C@H]2NC(=O)C(=C)NC(=O)[C@H](NC(=O)[C@H](CCCCN)NC(=O)[C@H](CCSC)NC(=O)[C@H](CC(N)=O)NC(=O)[C@@H]3CS[C@@H](C)[C@@H](NC(=O)[C@H](CCCNN)NC(=O)[C@@H]4CS[C@@H](C)[C@@H](NC(=O)[C@@H]5CSC[C@@H](NC(=O)/C(=C\C)NC(=O)[C@@H](N)[C@@H](C)CC)C(=O)N[C@@H]([C@@H](C)CC)C(=O)NC(=C)C(=O)N[C@@H]([C@@H](C)CC)C(=O)N5)C(=O)N5CCC[C@H]5C(=O)NCC(=O)N4)C(=O)NCC(=O)N[C@@H](C)C(=O)N[C@@H]([C@@H](C)CC)C(=O)N[C@@H](CCSC)C(=O)NCC(=O)N3)[C@H](C)SC[C@H](NC2=O)C(=O)N[C@H](Cc2cnc[nH]2)C(=O)N1)[C@@H](C)CC)C(C)C)C(=O)N[C@@H](CCCCN)C(=O)O` [NISIN], the result in assay [1], in assay [3], in assay [5], in assay [7], in assay [8] and in [12] was Active. The outcome in assay [17], in assay [20], in [22] and in assay [23] was Active. In addition, the outcome in [2], in assay [6], in [9] and in assay [24] was inactive. Moreover, the inhibition entry in [4] and in assay [14] was “Active” in each case. The figures for the Activity in [10] and in assay [21] were above 80% and above 65%, respectively. Moreover, the “growth inhibition (GI)” value in assay [11], in [16], in [18] and in assay [19] was “Active” in each case. The inhibition entry in assay [13] and in [15] was “inactive” throughout.

In the case of `O=C(O)c1cn(C2CC2)c2cc(N3CCNCC3)c(F)cc2c1=O`, the result in assay [25], in assay [26], in assay [28] and in [29] was inactive. Also, the result in assay [7], in assay [8], in assay [30] and in assay [22] was Active. In assay [27], the inhibition result is “inactive”.
